Values quoted from earlier work in patent US20210154215A1, “Antifungal Cuticle Oil Composition” (Zenvision Pharma LLP, priority 2018, published 2021).

Solubility in water | Solubility in propylene glycol (propylene glycol) | SMILES | Solubility in ethanol | Solubility in methanol (methanol) | Solubility in methylene chloride (methylene chloride)
slightly soluble | freely soluble | OB1OCc2cc(F)ccc21 [Tavaborole, 5-fluoro-1,3-dihydro-1-hydroxy-2,1-benzoxaborole] | freely soluble | – | –
practically insoluble | – | C=C1CCN([C@H](C)[C@](O)(Cn2cncn2)c2ccc(F)cc2F)CC1 [Efinaconazole, (2R,3R)-2-(2,4-difluorophenyl)-3-(4-methylenepiperidin-1yl)-1-(1H-1,2,4-triazol-1-yl)butan-2ol] | – | – | –

SMILES | Solubility in water | Solubility in propylene glycol (propylene glycol) | Solubility in ethanol | Solubility in methanol (methanol) | Solubility in methylene chloride (methylene chloride)
CN(C/C=C/C#CC(C)(C)C)Cc1cccc2ccccc12.Cl [Terbinafine hydrochloride, (E)-N-(6,6-dimethyl-2-hepten-4-ynyl)-N-methyl-1-naphthalenemethanamine hydrochloride] | slightly soluble | – | soluble | freely soluble | freely soluble
